The results in this text go back to US20110086908A9, “USE OF PHOSPHATASE INHIBITORS FOR THE TREATMENT OF NEURODEGENERATIVE DISEASES” (priority 2007, published 2011).

The target in one experiment is T1, calcineurin (Homo sapiens, UniProt Q08209).
T1 construct: purchased Biomol
In words: Phosphatase activity assay (Biomol Green Assay-Kit), calcineurin. Type of experiment: biochemical. The following applies: 1 nM tautomycin. The method, then: (§1) Activity of recombinant PP1 (NEB) and calcineurin (Biomol) was measured with and without 1 nM tautomycin using the Biomol Green Assay-Kit (Biomol) according to manufacturer's instruction.

The target of the next experiment is T2, recombinant PP1 (Oryctolagus cuniculus, UniProt P62139).
T2 construct: purchased NEB
T2 sequence (P62139 whole entry): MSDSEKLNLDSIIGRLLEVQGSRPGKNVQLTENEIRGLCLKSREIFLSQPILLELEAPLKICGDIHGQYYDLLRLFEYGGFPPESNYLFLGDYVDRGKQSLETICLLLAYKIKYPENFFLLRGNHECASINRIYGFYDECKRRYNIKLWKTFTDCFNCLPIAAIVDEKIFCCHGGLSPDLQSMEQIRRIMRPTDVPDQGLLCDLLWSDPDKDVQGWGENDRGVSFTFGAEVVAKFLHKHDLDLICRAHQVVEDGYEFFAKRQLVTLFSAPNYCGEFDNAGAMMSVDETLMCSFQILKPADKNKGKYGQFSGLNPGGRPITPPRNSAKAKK
In words: PP1 activity assay (Biomol Green Assay-Kit). Type of experiment: biochemical. As to conditions: 1 nM tautomycin. On the procedure:
as §1

The test system of experiment [1] is hippocampal LTP in slices from arcAβ mice and wt littermates. In words: Tautomycin bath application to acute hippocampal slices, LTP measurement (fEPSP recordings). The format is cell-based, mouse. As to conditions: 1 nM tautomycin, at least 1 h before recording.
The subject of experiment [2] is hippocampal LTP in slices from wildtype, I-1* control and I-1* transgenic mice. The experiment in a line: Aβ-oligomers bath application to acute hippocampal slices, LTP measurement. Type of experiment: cell-based, mouse.

“Also recorded” adds a separate entry of the source.

T1 sequence (P63098 2-170, other chains not shown): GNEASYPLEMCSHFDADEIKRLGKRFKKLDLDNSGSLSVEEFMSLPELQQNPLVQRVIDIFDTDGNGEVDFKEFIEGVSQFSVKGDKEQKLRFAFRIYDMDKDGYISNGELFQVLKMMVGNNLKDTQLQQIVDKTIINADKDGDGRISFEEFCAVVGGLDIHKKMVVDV

Take `CO[C@H]([C@H](O)CC(=O)[C@@H](C)[C@@H](O)CC[C@@H](C)[C@@H]1O[C@]2(CC[C@@H](C)[C@H](CC[C@H](C)C(C)=O)O2)CC[C@@H]1C)[C@H](OC(=O)C[C@@H](O)C1=C(C)C(=O)OC1=O)C(C)C` [tautomycin]: on calcineurin, the inhibition – broadly, the change of the read-out against control, counted positive when it falls – at 0.001 µM is less than 10% and the “inhibition of calcineurin activity (in words)” value was “not calcineurin”. Further, on recombinant PP1, the inhibition at 0.001 µM is approximately 90% and the “inhibition of recombinant PP1 activity (in words)” value is given as “specifically inhibits the activity of recombinant PP1”. Also, in experiment [1] (3 months old arcAβ mice), the “effect on LTP deficit in slices from arcAβ (tg) mice (in words)” value was “fully rescued the LTP deficit; also recorded: full rescue of LTP”. In addition, the “effect on LTP in slices from wt (non-transgenic) mice (in words)” value in experiment [1] (wt littermates) is “has no effect”.
For the molecule “Aβ-oligomers: oligomers produced from synthetic Aβ 1-42 (Bachem) according to Klein”, in experiment [2] (Aβ-oligomers bath-applied at least 1 h, I-1* littermate controls), the “effect on LTP in slices from I-1* control mice (in words)” value is reported as “impair LTP; also recorded: Aβ-oligomers mediated LTP deficit”. Besides, in experiment [2] (Aβ-oligomers bath-applied at least 1 h, I-1* transgenic mice), the “effect on LTP in slices from I-1* transgenic (mutant) mice with reduced PP1 activity (in words)” value is “not in mutant mice; also recorded: failed to inhibit LTP”. For the same molecule, the “effect on LTP in slices from wildtype mice (in words)” value in experiment [2] (Aβ-oligomers corresponding to 0.5 μM initial peptide, bath-applied at least 1 h) is listed as “impair LTP; also recorded: LTP was inhibited”.
